This passage reports IC50 results from patent publication US10479795B2 (Incyte Corporation, priority 2016, dated 2019).

Structures can show the parent of a compound that is named as a salt.

For test [1], the target named is PI3Kγ (p110γ) Recombinant Human Protein (Homo sapiens (Human), UniProt P48736). Description: PI3K-γ Scintillation Proximity Assay. Format: biochemical. The following applies: read-out: PI3Kγ IC50. A digest of the protocol:
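Recombinant human p110γ assayed at room temperature in 20 mM MOPS pH 6.7, 10 mM MgCl2, 5 mM DTT, 0.03% CHAPS, 2% DMSO, with 20 μM PIP2 and 2 μM ATP plus [γ-33P]ATP. Product captured on WGA SPA beads overnight and counted; IC50 fitted from % of solvent-control activity versus log inhibitor concentration.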

For test [2], the system named is Phosphorylated Ribosomal Protein S6 (RPS6). Description: THP-1 RPS6 ELISA Assay. The format is cell-based, Human. The note with it: Homo sapiens; THP-1 cells; read-out: PI3Kγ_THP1_RPS6_ELISA IC50. A digest of the protocol: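 Serum-starved THP-1 cells were preincubated with a concentration range of compound for 2 h at 37 °C, then stimulated with 10 nM MCP-1 for 15 min. Phospho-RPS6 in lysates was quantified by ELISA at 450 nm. IC50 came from percent inhibition versus log inhibitor concentration.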

Test [3] addresses PI3Kδ (p110δ/p85α) Recombinant Human Protein (Homo sapiens (Human), UniProt O00329). Description: PI3Kδ Scintillation Proximity Assay. Format: biochemical. In a few lines: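 Kinase reaction run at room temperature in 20 mM MOPS pH 6.7, 10 mM MgCl2, 5 mM DTT, 0.03% CHAPS with 20 μM PIP2, 2 μM ATP plus [γ-33P]ATP, 3.4 nM enzyme, 2% DMSO; 120 min. Quenched with WGA SPA beads/EDTA, counted by scintillation; IC50 from % solvent-control activity vs log concentration.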
In general terms: Scintillation proximity formats need no separation of bound from free tracer.

Chain of PI3Kγ (p110γ) Recombinant Human Protein (P48736 whole entry): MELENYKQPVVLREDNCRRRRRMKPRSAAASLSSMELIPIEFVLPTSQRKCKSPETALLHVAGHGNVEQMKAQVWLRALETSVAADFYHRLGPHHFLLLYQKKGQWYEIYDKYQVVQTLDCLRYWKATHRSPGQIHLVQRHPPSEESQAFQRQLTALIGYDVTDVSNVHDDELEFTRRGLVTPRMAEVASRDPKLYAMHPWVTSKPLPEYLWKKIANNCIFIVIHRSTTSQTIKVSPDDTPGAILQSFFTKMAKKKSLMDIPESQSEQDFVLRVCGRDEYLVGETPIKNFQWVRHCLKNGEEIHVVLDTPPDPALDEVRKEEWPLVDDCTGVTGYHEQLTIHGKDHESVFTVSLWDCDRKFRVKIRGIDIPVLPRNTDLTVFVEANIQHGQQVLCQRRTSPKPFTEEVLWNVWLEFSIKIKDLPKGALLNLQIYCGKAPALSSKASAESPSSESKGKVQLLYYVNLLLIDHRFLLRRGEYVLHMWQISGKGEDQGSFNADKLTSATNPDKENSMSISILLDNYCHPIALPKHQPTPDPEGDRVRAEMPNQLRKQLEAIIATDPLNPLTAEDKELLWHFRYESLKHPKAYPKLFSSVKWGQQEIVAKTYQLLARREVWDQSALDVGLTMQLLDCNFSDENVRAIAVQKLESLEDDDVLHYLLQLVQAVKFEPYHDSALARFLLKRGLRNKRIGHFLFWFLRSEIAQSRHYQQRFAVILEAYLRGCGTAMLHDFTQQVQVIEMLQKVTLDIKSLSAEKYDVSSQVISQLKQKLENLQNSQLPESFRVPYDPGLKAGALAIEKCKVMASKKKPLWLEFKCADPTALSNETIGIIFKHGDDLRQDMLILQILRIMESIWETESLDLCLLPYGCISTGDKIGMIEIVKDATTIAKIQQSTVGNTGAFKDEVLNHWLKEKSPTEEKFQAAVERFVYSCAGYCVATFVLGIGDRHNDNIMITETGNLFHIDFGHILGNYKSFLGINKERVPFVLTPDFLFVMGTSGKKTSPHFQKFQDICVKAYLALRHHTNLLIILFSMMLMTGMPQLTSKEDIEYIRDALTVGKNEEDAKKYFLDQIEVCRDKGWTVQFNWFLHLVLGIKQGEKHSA
Chain of PI3Kδ (p110δ/p85α) Recombinant Human Protein (O00329 whole entry): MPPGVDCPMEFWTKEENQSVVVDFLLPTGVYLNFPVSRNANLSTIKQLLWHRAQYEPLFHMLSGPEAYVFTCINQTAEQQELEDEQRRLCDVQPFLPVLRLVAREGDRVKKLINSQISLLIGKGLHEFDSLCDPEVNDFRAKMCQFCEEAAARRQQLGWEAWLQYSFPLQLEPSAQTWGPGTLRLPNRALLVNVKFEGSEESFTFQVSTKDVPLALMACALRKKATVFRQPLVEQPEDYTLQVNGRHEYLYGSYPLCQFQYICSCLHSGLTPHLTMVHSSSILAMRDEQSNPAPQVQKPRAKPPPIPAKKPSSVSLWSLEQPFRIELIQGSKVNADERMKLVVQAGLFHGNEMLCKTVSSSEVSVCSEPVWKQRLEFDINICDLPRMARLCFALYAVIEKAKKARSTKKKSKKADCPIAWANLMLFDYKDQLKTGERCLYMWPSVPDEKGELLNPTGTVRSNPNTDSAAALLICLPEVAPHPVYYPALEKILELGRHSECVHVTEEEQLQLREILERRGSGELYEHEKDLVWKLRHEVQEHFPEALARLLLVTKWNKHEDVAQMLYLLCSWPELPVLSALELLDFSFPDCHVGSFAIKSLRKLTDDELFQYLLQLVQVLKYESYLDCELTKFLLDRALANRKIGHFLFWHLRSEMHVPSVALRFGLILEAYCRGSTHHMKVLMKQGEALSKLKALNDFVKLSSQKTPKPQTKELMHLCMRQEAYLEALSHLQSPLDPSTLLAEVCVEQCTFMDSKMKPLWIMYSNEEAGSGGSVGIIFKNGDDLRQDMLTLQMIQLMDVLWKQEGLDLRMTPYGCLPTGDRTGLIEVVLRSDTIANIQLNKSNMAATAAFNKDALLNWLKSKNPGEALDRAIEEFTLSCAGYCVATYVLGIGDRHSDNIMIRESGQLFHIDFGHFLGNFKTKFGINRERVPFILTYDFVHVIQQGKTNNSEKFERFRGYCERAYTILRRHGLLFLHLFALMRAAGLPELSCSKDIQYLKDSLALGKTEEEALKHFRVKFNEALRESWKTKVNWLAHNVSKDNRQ
Chain of PI3Kδ (p110δ/p85α) Recombinant Human Protein (P27986 whole entry partner): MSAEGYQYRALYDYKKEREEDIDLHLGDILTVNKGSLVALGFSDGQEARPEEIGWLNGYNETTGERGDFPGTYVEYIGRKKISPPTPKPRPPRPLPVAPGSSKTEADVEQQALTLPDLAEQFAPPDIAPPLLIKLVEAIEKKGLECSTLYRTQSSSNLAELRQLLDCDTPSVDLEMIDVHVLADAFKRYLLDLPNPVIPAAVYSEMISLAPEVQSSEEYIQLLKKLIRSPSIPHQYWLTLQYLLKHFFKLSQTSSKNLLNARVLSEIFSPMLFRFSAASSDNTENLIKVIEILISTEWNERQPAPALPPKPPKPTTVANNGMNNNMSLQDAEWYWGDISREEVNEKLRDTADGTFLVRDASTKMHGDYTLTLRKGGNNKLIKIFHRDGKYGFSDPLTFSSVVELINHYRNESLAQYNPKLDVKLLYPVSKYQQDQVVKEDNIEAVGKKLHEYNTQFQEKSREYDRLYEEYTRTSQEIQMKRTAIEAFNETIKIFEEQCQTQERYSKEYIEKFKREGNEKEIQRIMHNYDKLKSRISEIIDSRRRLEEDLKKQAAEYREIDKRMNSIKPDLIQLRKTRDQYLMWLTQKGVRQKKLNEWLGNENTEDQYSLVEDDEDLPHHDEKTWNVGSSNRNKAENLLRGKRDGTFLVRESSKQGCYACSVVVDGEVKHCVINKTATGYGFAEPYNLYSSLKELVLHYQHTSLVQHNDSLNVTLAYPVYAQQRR

Consider `Cc1ccc(S(=O)(=O)NC23CCC(F)(CC2)CC3)cc1-c1cnc2c(N)ncnn12` [Example 188, 3-(4-aminoimidazo[2,1-f][1,2,4]triazin-7-yl)-N-(4-fluorobicyclo[2.2.2]octan-1-yl)-4-methylbenzenesulfonamide], for which the IC50 (usually the concentration at which inhibition is half-maximal) in test [1] was below 100 nM; in test [2], 100 to 500 nM; in test [3] it was below 100 nM.

For the compound `Cc1ccc(S(=O)(=O)NC2(C#N)CC2)cc1-c1cnc2c(N)ncnn12` [Example 189, 3-(4-aminoimidazo[2,1-f][1,2,4]triazin-7-yl)-N-(1-cyanocyclopropyl)-4-methylbenzenesulfonamide], the IC50 in test [1] is below 100 nM; in test [2], 500 to 1000 nM; in test [3] it was 500 to 2000 nM.

Turning to `Cc1ccc(S(=O)(=O)NC(C)(C)C(N)=O)cc1-c1cnc2c(N)ncnn12` [Example 190, 2-((3-(4-aminoimidazo[2,1-f][1,2,4]triazin-7-yl)-4-methylphenyl)sulfonamido)-2-methylpropanamide trifluoroacetate], the figures for the IC50 in test [1], in test [2] and in test [3] were below 100 nM, above 1000 nM and 500 to 2000 nM, respectively.

In the case of `Cc1ccc(S(=O)(=O)NC2(C#N)CCC2)cc1-c1cnc2c(N)ncnn12` [Example 192, 3-(4-aminoimidazo[2,1-f][1,2,4]triazin-7-yl)-N-(1-cyanocyclobutyl)-4-methylbenzenesulfonamide trifluoroacetate], the IC50 is below 100 nM in test [1], 500 to 1000 nM in test [2] and 100 to 500 nM in test [3].

`Cc1ccc(S(=O)(=O)N2CCC3(CCCO3)CC2)cc1-c1cnc2c(N)ncnn12` [Example 194, 7-(5-((1-Oxa-8-azaspiro[4.5]decan-8-yl)sulfonyl)-2-methylphenyl)imidazo[2,1-f][1,2,4]triazin-4-amine]: the values for the IC50 in test [1], in test [2] and in test [3] were below 100 nM, 100 to 500 nM and 500 to 2000 nM, respectively.

Consider `Cc1ccc(S(=O)(=O)N2CC[C@H](O)C2)cc1-c1cnc2c(N)ncnn12` [Example 197, (S)-1-((3-(4-Aminoimidazo[2,1-f][1,2,4]triazin-7-yl)-4-methylphenyl)sulfonyl)pyrrolidin-3-ol], for which the figures for the IC50 in test [1], in test [2] and in test [3] were below 100 nM, 500 to 1000 nM and 500 to 2000 nM, respectively.

Consider `CC(=O)NC1CCN(S(=O)(=O)c2ccc(C)c(-c3cnc4c(N)ncnn34)c2)C1` (stereo not drawn) [Example 199, N-(1-((3-(4-Aminoimidazo[2,1-f][1,2,4]triazin-7-yl)-4-methylphenyl)sulfonyl)pyrrolidin-3-yl)acetamide], for which the IC50 in test [1] is below 100 nM; in test [2] it was 500 to 1000 nM; in test [3] it was 500 to 2000 nM.

For the compound `Cc1ccc(S(=O)(=O)N2CCC3(CCCOC3)C2)cc1-c1cnc2c(N)ncnn12` (stereo not drawn) [Example 203, 7-(5-((7-Oxa-2-azaspiro[4.5]decan-2-yl)sulfonyl)-2-methylphenyl)imidazo[2,1-f][1,2,4]triazin-4-amine], the values for the IC50 in test [1], in test [2] and in test [3] were below 100 nM, 500 to 1000 nM and 100 to 500 nM, respectively.

For the compound `Cc1ccc(S(=O)(=O)N2CCC3(CCO3)C2)cc1-c1cnc2c(N)ncnn12` (stereo not drawn) [Example 205, 7-(5-((1-Oxa-6-azaspiro[3.4]octan-6-yl)sulfonyl)-2-methylphenyl)imidazo[2,1-f][1,2,4]triazin-4-amine], the IC50 was below 100 nM in test [1], above 1000 nM in test [2] and 500 to 2000 nM in test [3].

As to `Cc1ccc(S(=O)(=O)N2CCC3(CCOCC3)C2C)cc1-c1cnc2c(N)ncnn12` (stereo not drawn) [Example 206, 7-(2-Methyl-5-((1-methyl-8-oxa-2-azaspiro[4.5]decan-2-yl)sulfonyl)phenyl)imidazo[2,1-f][1,2,4]triazin-4-amine], the values for the IC50 in test [1], in test [2] and in test [3] were below 100 nM, above 1000 nM and 500 to 2000 nM, respectively.

With `Cc1ccc(S(=O)(=O)N2CCCC23CCOC3)cc1-c1cnc2c(N)ncnn12` (stereo not drawn) [Example 208, 7-(5-((7-Oxa-1-azaspiro[4.4]nonan-1-yl)sulfonyl)-2-methylphenyl)imidazo[2,1-f][1,2,4]triazin-4-amine], the IC50 in test [1] was below 100 nM; in test [2], 500 to 1000 nM; in test [3], 500 to 2000 nM.

In the case of `Cc1ccc(S(=O)(=O)N2CC3CCOCC3C2)cc1-c1cnc2c(N)ncnn12` (stereo not drawn) [Example 210, 7-(5-((Hexahydropyrano[3,4-c]pyrrol-2(3H)-yl)sulfonyl)-2-methylphenyl)imidazo[2,1-f][1,2,4]triazin-4-amine], the IC50 in test [1] is below 100 nM; in test [2] it was 100 to 500 nM; in test [3] it was 100 to 500 nM.

For `Cc1ccc(S(=O)(=O)N2CC(F)(F)C[C@H]2CO)cc1-c1cnc2c(N)ncnn12` [Example 212, (S)-(1-((3-(4-Aminoimidazo[2,1-f][1,2,4]triazin-7-yl)-4-methylphenyl)sulfonyl)-4,4-difluoropyrrolidin-2-yl)methanol], the IC50 in test [1] was below 100 nM; in test [2] it was 500 to 1000 nM; in test [3] it was 500 to 2000 nM.

For the compound `Cc1ccc(S(=O)(=O)N[C@@H](C)CO)cc1-c1cnc2c(N)nc(C(F)(F)F)nn12` [Example 249, (S)-3-(4-Amino-2-(trifluoromethyl)imidazo[2,1-f][1,2,4]triazin-7-yl)-N-(1-hydroxypropan-2-yl)-4-methylbenzenesulfonamide], the IC50 was below 100 nM in test [1], 100 to 500 nM in test [2] and 100 to 500 nM in test [3].

In the case of `Cc1ccc(S(=O)(=O)NC23CC(C#N)(C2)C3)cc1-c1cnc2c(N)ncnn12` [Example 250, 3-(4-Aminoimidazo[2,1-f][1,2,4]triazin-7-yl)-N-(3-cyanobicyclo[1.1.1]pentan-1-yl)-4-methylbenzenesulfonamide], the figures for the concentration for half-maximal inhibition (IC50) in test [1], in test [2] and in test [3] were below 100 nM, 100 to 500 nM and 100 to 500 nM, respectively.

`Cc1ccc(S(=O)(=O)NC23CCC(C#N)(C2)C3)cc1-c1cnc2c(N)ncnn12` [Example 251, 3-(4-Aminoimidazo[2,1-f][1,2,4]triazin-7-yl)-N-(4-cyanobicyclo[2.1.1]hexan-1-yl)-4-methylbenzenesulfonamide trifluoroacetate salt]: the results for the IC50 in test [1], in test [2] and in test [3] were below 100 nM, below 100 nM and 100 to 500 nM, respectively.

As for `[2H]C([2H])([2H])c1ccc(S(=O)(=O)NC23CCC(O)(C2)C3)cc1-c1cnc2c(N)nc(C(F)(F)F)cn12` [Example 252, 3-(8-Amino-6-(trifluoromethyl)imidazo[1,2-a]pyrazin-3-yl)-N-(4-hydroxybicyclo[2.1.1]hexan-1-yl)-4-(methyl-d3)benzenesulfonamide], the results for the IC50 in test [1], in test [2] and in test [3] were below 100 nM, 100 to 500 nM and 100 to 500 nM, respectively.

Turning to `[2H]C([2H])([2H])c1ccc(S(=O)(=O)NC23CCC(C#N)(C2)C3)cc1-c1cnc2c(N)ncnn12` [Example 253, 3-(4-Aminoimidazo[2,1-f][1,2,4]triazin-7-yl)-N-(4-cyanobicyclo[2.1.1]hexan-1-yl)-4-(methyl-d3)benzenesulfonamide (crystalline free base)], the IC50 in test [1] is below 100 nM; in test [2], below 100 nM; in test [3], 100 to 500 nM.

`Cl.[2H]C([2H])([2H])c1ccc(S(=O)(=O)NC23CCC(C#N)(C2)C3)cc1-c1cnc2c(N)ncnn12` [Example 254, 3-(4-Aminoimidazo[2,1-f][1,2,4]triazin-7-yl)-N-(4-cyanobicyclo[2.1.1]hexan-1-yl)-4-(methyl-d3)benzenesulfonamide crystalline hydrochloric acid salt]: the values for the IC50 in test [1], in test [2] and in test [3] were below 100 nM, below 100 nM and 100 to 500 nM, respectively.

Turning to `O=S(=O)(O)c1ccccc1.[2H]C([2H])([2H])c1ccc(S(=O)(=O)NC23CCC(C#N)(C2)C3)cc1-c1cnc2c(N)ncnn12` [Example 255, 3-(4-Aminoimidazo[2,1-f][1,2,4]triazin-7-yl)-N-(4-cyanobicyclo[2.1.1]hexan-1-yl)-4-(methyl-d3)benzenesulfonamide crystalline benzenesulfonic acid salt], the IC50 in test [1] is below 100 nM; in test [2] it was below 100 nM; in test [3] it was 100 to 500 nM.

For the compound `Cc1ncc(S(=O)(=O)NC23CCC(C#N)(C2)C3)cc1-c1cnc2c(N)ncnn12` [Example 256, 5-(4-Aminoimidazo[2,1-f][1,2,4]triazin-7-yl)-N-(4-cyanobicyclo[2.1.1]hexan-1-yl)-6-methylpyridine-3-sulfonamide trifluoroacetate salt], the IC50 in test [1] was below 100 nM; in test [2], 100 to 500 nM; in test [3], 100 to 500 nM.

On to `Cc1ncc(S(=O)(=O)NC23CCC(C#N)(C2)C3)cc1-c1cnc2c(N)nc(C(F)(F)F)cn12` [Example 257, 5-(8-amino-6-(trifluoromethyl)imidazo[1,2-a]pyrazin-3-yl)-N-(4-cyanobicyclo[2.1.1]hexan-1-yl)-6-methylpyridine-3-sulfonamide], for which the 50% inhibitory concentration (IC50) was below 100 nM in test [1], above 1000 nM in test [2] and 500 to 2000 nM in test [3].

On to `Cc1nc2c(N)ncnn2c1-c1cccc(S(=O)(=O)NC23CCC(C#N)(C2)C3)c1` [Example 258, 3-(4-Amino-6-methylimidazo[2,1-f][1,2,4]triazin-7-yl)-N-(4-cyanobicyclo[2.1.1]hexan-1-yl)benzenesulfonamide trifluoroacetate salt], for which the IC50 was below 100 nM in test [1], 500 to 1000 nM in test [2] and 100 to 500 nM in test [3].
